Data: US20230114728A1 (Venatorx Pharmaceuticals, Inc., priority 2019, published 2023)
Values after ≈ are worked out from the molar mass of the structure shown.

Experiments:
E. coli AG100 = assay: Broth microdilution MIC in CAMHB; type: cell-based; conditions: Escherichia coli; E. coli AG100 (wild-type parent); MHB; read-out: Minimum Inhibitory Concentration, E. coli AG100
In short: (§1)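 Lowest compound concentration with no visible growth after 16-20 h at 37 °C defines MIC. Plates of 2-fold serial dilutions in cation-adjusted Mueller Hinton broth received 2-8×10^5 CFU/mL of exponentially grown cells, per CLSI methods; panel spans reference, hyper-permeable and efflux-pump-deleted strains.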

P. aeruginosa ATCC 27853 = assay: Broth microdilution MIC in CAMHB; type: cell-based; conditions: Pseudomonas aeruginosa, ATCC27853; MHB; read-out: Minimum Inhibitory Concentration, P. aeruginosa ATCC 27853
In short: as §1

E. coli AG100A = assay: Broth microdilution MIC in CAMHB; type: cell-based; conditions: Escherichia coli, read-out: Minimum Inhibitory Concentration, E. coli AG100A
In short: as §1

[1] = tested on: P. aeruginosa (ΔmexAB-oprM); assay: Broth microdilution MIC in CAMHB; type: cell-based; conditions: Pseudomonas aeruginosa, read-out: Minimum Inhibitory Concentration, P. aeruginosa ΔmexAB-OprM
In short: as §1

E. coli D22 = assay: Broth microdilution MIC in CAMHB; type: cell-based; conditions: Escherichia coli; E. coli D22 (hyper-permeable); MHB; read-out: Minimum Inhibitory Concentration, E. coli D22
In short: as §1

E. coli ATCC 25922 = assay: Broth microdilution MIC in CAMHB; type: cell-based; conditions: Escherichia coli, ATCC25922; E. coli ATCC 25922; MHB; read-out: Minimum Inhibitory Concentration, E. coli 25922
In short: as §1

[2] = tested on: K. pneumoniae 848844 producing SHV-11 and KPC-2; assay: Broth microdilution MIC in CAMHB; type: cell-based; conditions: Klebsiella pneumoniae, read-out: Minimum Inhibitory Concentration, K. pneumoniae 848844
In short: as §1

[3] = tested on: K. pneumoniae UMM producing SHV-5 and KPC-2; assay: Broth microdilution MIC in CAMHB; type: cell-based; conditions: Klebsiella pneumoniae, read-out: Minimum Inhibitory Concentration, K. pneumoniae UMM
In short: as §1

P. aeruginosa PBP3 = biological target: T1, P. aeruginosa PBP3 (Pseudomonas aeruginosa, UniProt G3XD46); assay: Bocillin-FL fluorescence polarization competition binding assay, P. aeruginosa PBP3; conditions: fluorescence polarization competition binding assay using Bocillin-FL
T1 construct: made in house
In short: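 Inhibitor competition with Bocillin-FL for P. aeruginosa PBP3 was followed by fluorescence polarization on a Cytation3 (BioTek) reader, using g-factor 0.96, 490 nm excitation and 520 nm emission. The enzyme was at 0.75 μM and the probe at 0.1 μM in Hepes/NaCl/glycerol buffer, 80 μl per well. FP was recorded immediately after probe addition for up to 60 minutes. Potency was expressed as EC50, the concentration that reduces bound probe by 50%.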

T1 sequence (G3XD46 whole entry): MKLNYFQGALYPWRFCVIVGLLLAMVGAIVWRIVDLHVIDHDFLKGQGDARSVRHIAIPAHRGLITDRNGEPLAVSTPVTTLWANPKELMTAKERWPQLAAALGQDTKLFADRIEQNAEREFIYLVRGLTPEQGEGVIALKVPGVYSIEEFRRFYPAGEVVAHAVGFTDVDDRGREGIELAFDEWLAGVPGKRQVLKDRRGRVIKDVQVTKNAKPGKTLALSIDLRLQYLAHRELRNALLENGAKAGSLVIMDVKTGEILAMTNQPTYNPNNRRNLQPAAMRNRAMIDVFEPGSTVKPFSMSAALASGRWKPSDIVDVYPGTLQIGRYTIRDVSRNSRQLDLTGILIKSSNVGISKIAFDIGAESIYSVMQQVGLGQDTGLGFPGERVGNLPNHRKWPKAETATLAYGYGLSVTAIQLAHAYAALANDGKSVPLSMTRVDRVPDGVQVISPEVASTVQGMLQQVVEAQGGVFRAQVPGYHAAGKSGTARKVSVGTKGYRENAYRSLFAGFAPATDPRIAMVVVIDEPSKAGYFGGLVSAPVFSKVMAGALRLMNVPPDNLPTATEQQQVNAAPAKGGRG

Row | Structure (SMILES) | MIC (E. coli AG100) [µg/mL] | MIC (P. aeruginosa ATCC 27853) [µg/mL] | MIC (E. coli AG100A) [µg/mL] | MIC [1] [µg/mL] | MIC (E. coli D22) [µg/mL] | MIC (E. coli ATCC 25922) [µg/mL] | MIC [2] [µg/mL] | MIC [3] [µg/mL] | P. aeruginosa PBP3 Potency (P. aeruginosa PBP3)
1 | NCCN1CCN(C(=O)N[C@H](C(=O)N[C@H]2Cc3cccc(C(=O)O)c3OB2O)c2ccc(O)c(Cl)c2F)C(=O)C1=O (single isomer, unassigned) [Example 187] | > 128 | > 128 | 8 to 16 (≈ 13.5 to 27 µM) | 32 to 64 (≈ 54.1 to 108 µM) | 32 to 64 (≈ 54.1 to 108 µM) | > 128 | > 128 | > 128 | B (B represents a potency between 30 μM and 500 μM inclusive)
2 | CS(=O)(=O)N1CCN(C(=O)N[C@@H](C(=O)N[C@H]2Cc3ccc(F)c(C(=O)O)c3OB2O)c2cc(F)c(O)c(O)c2Cl)C1=O (single isomer, unassigned) [Example 189] | 8 to 16 (≈ 12.6 to 25.3 µM) | 2 to 4 (≈ 3.16 to 6.32 µM) | 2 to 4 (≈ 3.16 to 6.32 µM) | 8 to 16 (≈ 12.6 to 25.3 µM) | 0.5 to 1 (≈ 0.79 to 1.58 µM) | 2 to 4 (≈ 3.16 to 6.32 µM) | 2 to 4 (≈ 3.16 to 6.32 µM) | > 128 | D (D represents a potency <10 μM)
3 | NCCN1CCN(C(=O)N[C@@H](C(=O)N[C@H]2Cc3cccc(C(=O)O)c3OB2O)c2c(O)cc(O)cc2F)C(=O)C1=O (single isomer, unassigned) [Example 194] | 8 to 16 (≈ 14 to 27.9 µM) | > 128 | 2 to 4 (≈ 3.49 to 6.98 µM) | 8 to 16 (≈ 14 to 27.9 µM) | 2 to 4 (≈ 3.49 to 6.98 µM) | 8 to 16 (≈ 14 to 27.9 µM) | 32 to 64 (≈ 55.8 to 112 µM) | 8 to 16 (≈ 14 to 27.9 µM) | D (D represents a potency <10 μM)
4 | NCCCN1CCN(C(=O)N[C@@H](C(=O)N[C@H]2Cc3cccc(C(=O)O)c3OB2O)c2c(O)cc(O)cc2F)C(=O)C1=O (single isomer, unassigned) [Example 195] | 8 to 16 (≈ 13.6 to 27.2 µM) | > 128 | 2 to 4 (≈ 3.41 to 6.81 µM) | 8 to 16 (≈ 13.6 to 27.2 µM) | 2 to 4 (≈ 3.41 to 6.81 µM) | 8 to 16 (≈ 13.6 to 27.2 µM) | 32 to 64 (≈ 54.5 to 109 µM) | 8 to 16 (≈ 13.6 to 27.2 µM) | D (D represents a potency <10 μM)
5 | NCCN1CCN(C(=O)N[C@@H](C(=O)N[C@H]2Cc3cccc(C(=O)O)c3OB2O)c2ccc(O)c([N+](=O)[O-])c2)C(=O)C1=O (single isomer, unassigned) [Example 199] | > 128 | > 128 | 2 to 4 (≈ 3.42 to 6.85 µM) | 8 to 16 (≈ 13.7 to 27.4 µM) | 8 to 16 (≈ 13.7 to 27.4 µM) | 32 to 64 (≈ 54.8 to 110 µM) | > 128 | > 128 | D (D represents a potency <10 μM)
6 | NCCN1CCN(C(=O)N[C@H](C(=O)N[C@H]2Cc3cccc(C(=O)O)c3OB2O)c2ccc(O)c([N+](=O)[O-])c2)C(=O)C1=O (single isomer, unassigned) [Example 200] | > 128 | > 128 | 32 to 64 (≈ 54.8 to 110 µM) | > 128 | > 128 | > 128 | > 128 | > 128 | C (C represents a potency between 10 and 30 μM)
7 | CCN1CCN(C(=O)N[C@H](C(=O)N[C@H]2Cc3cccc(C(=O)O)c3OB2O)c2ccc(C(=O)O)c(F)c2Cl)C(=O)C1=O (single isomer, unassigned) [Example 202] | > 128 | > 128 | 32 to 64 (≈ 52.9 to 106 µM) | > 128 | 8 to 16 (≈ 13.2 to 26.5 µM) | > 128 | > 128 | > 128 | C (C represents a potency between 10 and 30 μM)
8 | CCN1CCN(C(=O)N[C@@H](C(=O)N[C@H]2Cc3cccc(C(=O)O)c3OB2O)c2ccc(C(=O)O)c(F)c2Cl)C(=O)C1=O (single isomer, unassigned) [Example 203] | 32 to 64 (≈ 52.9 to 106 µM) | > 128 | 8 to 16 (≈ 13.2 to 26.5 µM) | 8 to 16 (≈ 13.2 to 26.5 µM) | 2 to 4 (≈ 3.31 to 6.61 µM) | > 128 | > 128 | 32 to 64 (≈ 52.9 to 106 µM) | D (D represents a potency <10 μM)
9 | NCCN1CCN(C(=O)N[C@H](C(=O)N[C@H]2Cc3cccc(C(=O)O)c3OB2O)c2c(F)cccc2F)C(=O)C1=O (single isomer, unassigned) [Example 204] | > 128 | > 128 | 32 to 64 (≈ 57.2 to 114 µM) | > 128 | > 128 | > 128 | > 128 | > 128 | B (B represents a potency between 30 μM and 500 μM inclusive)
10 | NCCN1CCN(C(=O)N[C@@H](C(=O)N[C@H]2Cc3cccc(C(=O)O)c3OB2O)c2c(F)cccc2Cl)C(=O)C1=O (single isomer, unassigned) [Example 205] | > 128 | > 128 | 8 to 16 (≈ 13.9 to 27.8 µM) | 32 to 64 (≈ 55.6 to 111 µM) | 32 to 64 (≈ 55.6 to 111 µM) | > 128 | > 128 | > 128 | C (C represents a potency between 10 and 30 μM)
11 | NCCN1CCN(C(=O)N[C@H](C(=O)N[C@H]2Cc3cccc(C(=O)O)c3OB2O)c2c(F)cccc2Cl)C(=O)C1=O (single isomer, unassigned) [Example 206] | > 128 | > 128 | 32 to 64 (≈ 55.6 to 111 µM) | > 128 | > 128 | > 128 | > 128 | > 128 | B (B represents a potency between 30 μM and 500 μM inclusive)
12 | CCN1CCN(C(=O)NC(C(=O)N[C@H]2Cc3ccc(F)c(C(=O)O)c3OB2O)c2ncc(C(=O)O)cc2F)C(=O)C1=O (stereo partly drawn) [Example 33, 6-(2-(((R)-8-carboxy-7-fluoro-2-hydroxy-3,4-dihydro-2H-benzo[e][1,2]oxaborinin-3-yl)amino)-1-(4-ethyl-2,3-dioxopiperazine-1-carboxamido)-2-oxoethyl)-5-fluoronicotinic acid] | > 128 | > 128 | > 128 | 32 to 64 (≈ 54.3 to 109 µM) | 2 to 4 (≈ 3.39 to 6.79 µM) | > 128 | > 128 | > 128 | D (D represents a potency <10 μM)
13 | NCCCN1CCN(C(=O)NC(C(=O)N[C@H]2Cc3cccc(C(=O)O)c3OB2O)c2c(F)cc(O)cc2F)C(=O)C1=O (stereo partly drawn) [Example 183, (3R)-3-(2-(4-(3-aminopropyl)-2,3-dioxopiperazine-1-carboxamido)-2-(2,6-difluoro-4-hydroxyphenyl)acetamido)-2-hydroxy-3,4-dihydro-2H-benzo[e][1,2]oxaborinine-8-carboxylic acid] | 8 to 16 (≈ 13.6 to 27.2 µM) | > 128 | 2 to 4 (≈ 3.39 to 6.79 µM) | 8 to 16 (≈ 13.6 to 27.2 µM) | 2 to 4 (≈ 3.39 to 6.79 µM) | 8 to 16 (≈ 13.6 to 27.2 µM) | 32 to 64 (≈ 54.3 to 109 µM) | 8 to 16 (≈ 13.6 to 27.2 µM) | D (D represents a potency <10 μM)
